pIC50: −log10 of the molar value.
Assays:
DOHH2 cells = assay: Cell proliferation assay (MTS), DOHH2 cells, 120 h; type: cell-based; conditions: Homo sapiens, DOHH-2, 120 h
Outline: (§1)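 Proliferation was scored by MTS (2 h, then SDS stop, A490 with 650 nm reference) and IC50 derived. Compound ran at nine final concentrations from 1.5 to 10000 nM. DOHH2 were incubated 120 h and RS4;11 72 h, both plated at 5000 cells/well in RPMI-1640 plus 10% FBS.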

RS4;11 cells = assay: Cell proliferation assay (MTS), RS4;11 cells, 72 h; type: cell-based; conditions: Homo sapiens, RS4-11, 72 h
Outline: as §1

| Compound | pIC50 (DOHH2 cells) | pIC50 (RS4;11 cells) |
| --- | --- | --- |
| CC1(C)CCC(CN2CCN(c3ccc(C(=O)NS(=O)(=O)c4cc5c(c([N+](=O)[O-])c4)N[C@@H](CN4CC(O)C4)CO5)c(Oc4cnc5[nH]ccc5c4)c3)CC2)=C(c2ccc(Cl)cc2)C1 [Example 2-24, (S)-2-((1H-pyrrolo[2,3-b]pyridin-5-yl)oxy)-4-(4-((4′-chloro-5,5-dimethyl-3,4,5,6-tetra-hydro-[1,1′-biphenyl]-2-yl)methyl)piperazin-1-yl)-N-((3-((3-hydroxyazetidin-1-yl)meth-yl)-5-nitro-3,4-dihydro-2H-benzo[b][1,4]oxazin-7-yl)sulfonyl)benzamide] | 6.94 | 7.14 |
| CC1(C)CCC(CN2CCN(c3ccc(C(=O)NS(=O)(=O)c4cc5c(c([N+](=O)[O-])c4)N[C@@H](CN4CC(C)(O)C4)CO5)c(Oc4cnc5[nH]ccc5c4)c3)CC2)=C(c2ccc(Cl)cc2)C1 [Example 2-25, (S)-2-((1H-pyrrolo[2,3-b]pyridin-5-yl)oxy)-4-(4-((4′-chloro-5,5-dimethyl-3,4,5,6-tetra-hydro-[1,1′-biphenyl]-2-yl)methyl)piperazin-1-yl)-N-((3-((3-hydroxy-3-methylazetidin-1-yl)methyl)-5-nitro-3,4-dihydro-2H-ben-zo[b][1,4]oxazin-7-yl)sulfonyl)benzamide] | 8.00 | 8.10 |
| C[C@@H]1CN(C[C@H]2COc3cc(S(=O)(=O)NC(=O)c4ccc(N5CCN(CC6=C(c7ccc(Cl)cc7)CC(C)(C)CC6)CC5)cc4Oc4cnc5[nH]ccc5c4)cc([N+](=O)[O-])c3N2)CCN1C [Example 2-26, 2-((1H-pyrrolo[2,3-b]pyridin-5-yl)oxy)-4-(4-((4′-chloro-5,5-dimethyl-3,4,5,6-tetrahydro-[1,1′-biphenyl]-2-yl)methyl)piperazin-1-yl)-N-(((S)-3-(((R)-3,4-dimethylpiperazin-1-yl)methyl)-5-nitro-3,4-dihydro-2H-benzo [b][1,4]oxazin-7-yl)sulfonyl)benzamide] | 7.72 | 8.22 |
| C[C@H]1CN(C[C@H]2COc3cc(S(=O)(=O)NC(=O)c4ccc(N5CCN(CC6=C(c7ccc(Cl)cc7)CC(C)(C)CC6)CC5)cc4Oc4cnc5[nH]ccc5c4)cc([N+](=O)[O-])c3N2)CCN1C [Example 2-27, 2-((1H-pyrrolo[2,3-b]pyridin-5-yl)oxy)-4-(4-((4′-chloro-5,5-dimethyl-3,4,5,6-tetra-hydro-[1,1′-biphenyl]-2-yl)methyl)piperazin-1-yl)-N-(((S)-3-(((S)-3,4-dimethylpiperazin-1-yl)methyl)-5-nitro-3,4-dihydro-2H-benzo [b][1,4]oxazin-7-yl)sulfonyl)benzamide] | 7.92 | 9.00 |
| CC1(C)CCC(CN2CCN(c3ccc(C(=O)NS(=O)(=O)c4cc5c(c([N+](=O)[O-])c4)N[C@@H](CN4CCN(C6COC6)CC4)CO5)c(Oc4cnc5[nH]ccc5c4)c3)CC2)=C(c2ccc(Cl)cc2)C1 [Example 2-28, (S)-2-((1H-pyrrolo[2,3-b]pyridin-5-yl)oxy)-4-(4-((4′-chloro-5,5-dimethyl-3,4,5,6-tetra-hydro-[1,1′-biphenyl]-2-yl)methyl)piperazin-1-yl)-N-((5-nitro-3-((4-(oxetan-3-yl)piper-azin-1-yl)methyl)-3,4-dihydro-2H-benzo[b] [1,4]oxazin-7-yl)sulfonyl)benzamide] | 9.00 | 9.00 |
| C[C@@H]1CN(C[C@H]2COc3cc(S(=O)(=O)NC(=O)c4ccc(N5CCN(CC6=C(c7ccc(Cl)cc7)CC(C)(C)CC6)CC5)cc4Oc4cnc5[nH]ccc5c4)cc([N+](=O)[O-])c3N2)CCN1C1COC1 [Example 2-29, 2-((1H-pyrrolo[2,3-b]pyridin-5-yl)oxy)-4-(4-((4′-chloro-5,5-dimethyl-3,4,5,6-tetrahydro-[1,1′-biphenyl]-2-yl)methyl)piperazin-1-yl)-N-(((S)-3-(((R)-3-methyl-4-(oxetan-3-yl)piperazin-1-yl)methyl)-5-nitro-3,4-dihydro-2H-benzo[b][1,4]oxazin-7-yl)sulfonyl) benzamide] | 8.15 | 9.00 |

From patent US11091478B2 (Fochon Pharmaceuticals, Ltd., priority 2017, dated 2021)
